Consider two compounds from ChEMBL document CHEMBL6134780, “Halogenated retinoid derivatives as dual RARα and RXRα modulators for treating acute promyelocytic leukemia cells” (Eur J Med Chem, 2024).

Broadly, the inhibition is the percentage by which the read-out fell short of the control. The Kd is the equilibrium constant for the complex coming apart.

For assay [1], the system named is NB-4. The assay is described as follows: Cell cycle arrest in human NB4 cells assessed as accumulation of cells at sub-G1 phase at 1 uM incubated for 12 hrs by DAPI staining based flow cytometric analysis (reference value: 2 %). In kind it is functional. For orientation: A flow cytometer gives signals particle by particle.
The nature of assay [2]: Cell cycle arrest in human ATRA-resistant NB4-LR2 cells assessed as accumulation of cells at sub-G1 phase at 1 uM incubated for 12 hrs by DAPI staining based flow cytometric analysis (reference value: 18 %). It is filed as functional.
The subject of assay [3] is NB-4. The assay is described as follows: Induction of apoptosis in human NB4 cells assessed as late apoptotic cells at 1 uM incubated for 24 hrs by Annexin V-FITC/PI staining based flow cytometric analysis (reference value: 2.23 %). In kind it is functional.
The nature of assay [4]: Induction of apoptosis in human ATRA-resistant NB4-LR2 cells assessed as early apoptotic cells at 1 uM incubated for 24 hrs by Annexin V-FITC/PI staining based flow cytometric analysis (reference value: 1.41 %). In kind it is functional.
In assay [5] the target is T1, Retinoic acid receptor alpha (Homo sapiens) (UniProt P10276).
T1 sequence (whole entry): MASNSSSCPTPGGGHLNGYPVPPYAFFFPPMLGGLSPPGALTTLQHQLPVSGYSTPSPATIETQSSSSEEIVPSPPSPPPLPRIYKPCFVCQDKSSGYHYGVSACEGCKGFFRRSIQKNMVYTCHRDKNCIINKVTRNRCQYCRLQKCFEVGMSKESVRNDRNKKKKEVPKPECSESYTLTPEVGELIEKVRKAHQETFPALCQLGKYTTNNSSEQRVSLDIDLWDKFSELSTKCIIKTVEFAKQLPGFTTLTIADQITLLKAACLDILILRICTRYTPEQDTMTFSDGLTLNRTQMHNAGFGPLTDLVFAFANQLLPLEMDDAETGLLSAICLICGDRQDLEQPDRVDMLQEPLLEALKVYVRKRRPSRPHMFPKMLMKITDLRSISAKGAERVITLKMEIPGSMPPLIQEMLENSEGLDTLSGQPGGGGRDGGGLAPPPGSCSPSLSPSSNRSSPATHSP
Nature of the assay: Agonist activity at full length RARalpha LBD (unknown origin) transfected in HEK293T cells co-transfected with pG5luc reporter and Renilla-luc assessed as transactivation at 0.5 to 1 uM incubated for 12 hrs by luciferase reporter gene assay. It is filed as cell-based. As to conditions: filed as agonist, dose 0.5-1 µM; call rule not given here.

Assay [6] concerns NB-4. Nature of the assay: Cell cycle arrest in human NB4 cells assessed as accumulation of cells at G2/M phase at 1 uM incubated for 12 hrs by DAPI staining based flow cytometric analysis (reference value: 26 %). It is filed as functional.
Assay [7] concerns NB-4. Nature of the assay: Antiproliferative activity against human NB4 cells assessed as inhibition of cell viability at 0.125 uM incubated for 3 days by CCK8 assay relative to control. It is filed as functional. Particulars: NB-4, 72 h, time 3 day. On the technique in general: Formazan colour is commonly taken as a measure of viable cells.
Assay [8] in a line: Cell cycle arrest in human ATRA-resistant NB4-LR2 cells assessed as accumulation of cells at S phase at 1 uM incubated for 12 hrs by DAPI staining based flow cytometric analysis (reference value: 12 %). It is filed as functional.
In assay [9] the test system is NB-4. Nature of the assay: Cell cycle arrest in human NB4 cells assessed as accumulation of cells at G0/G1 phase at 1 uM incubated for 12 hrs by DAPI staining based flow cytometric analysis (reference value: 51 %). In kind it is functional.
A short description of assay [10]: Induction of apoptosis in human ATRA-resistant NB4-LR2 cells assessed as late apoptotic cells at 1 uM incubated for 24 hrs by Annexin V-FITC/PI staining based flow cytometric analysis (reference value: 5.62 %). In kind it is functional.
In assay [11] the test system is NB-4. The assay is described as follows: Induction of apoptosis in human NB4 cells assessed as early apoptotic cells at 1 uM incubated for 24 hrs by Annexin V-FITC/PI staining based flow cytometric analysis (reference value: 1.77 %). It is filed as functional.
A short description of assay [12]: Cell cycle arrest in human ATRA-resistant NB4-LR2 cells assessed as accumulation of cells at G2/M phase at 1 uM incubated for 12 hrs by DAPI staining based flow cytometric analysis (reference value: 28 %). In kind it is functional.
Assay [13] has as its system NB-4. Nature of the assay: Antiproliferative activity against human NB4 cells assessed as inhibition of cell viability incubated for 3 days by CCK8 assay. It is filed as functional, cell-based. As to conditions: dose <= 3.5 µM, time 3.0 day.
The test system of assay [14] is NB-4. The assay is described as follows: Cell cycle arrest in human NB4 cells assessed as accumulation of cells at S phase at 1 uM incubated for 12 hrs by DAPI staining based flow cytometric analysis (reference value: 20 %). It is filed as functional.
Assay [15] relates to NB-4. Nature of the assay: Antiproliferative activity against human NB4 cells assessed as inhibition of cell viability up to 2 uM incubated for 3 days by CCK8 assay relative to control. Particulars: time 3 day. In kind it is functional.
Assay [16] concerns NB-4. The assay is described as follows: Induction of cell differentiation in human NB4 cells assessed as NBT positive cells at 0.5 uM incubated for 6 days by Nitro Blue tetrazolium chloride based microscopic analysis (reference value: 0 %). In kind it is functional. As to conditions: time 6 day.
The nature of assay [17]: Cell cycle arrest in human ATRA-resistant NB4-LR2 cells assessed as accumulation of cells at G0/G1 phase at 1 uM incubated for 12 hrs by DAPI staining based flow cytometric analysis (reference value: 42 %). It is filed as functional.
Assay [18] has as its target Retinoic acid receptor RXR-alpha (Homo sapiens, UniProt P19793). Nature of the assay: Binding affinity to N-terminal His-tagged human RXRalpha LBD extracted from Escherichia coli BL21 (DE3) cells assessed as dissociation constant by fluorescence quenching assay.

Molecules are shown by their SMILES.

Chain of Retinoic acid receptor RXR-alpha (P19793 whole entry, the tested form may be a part): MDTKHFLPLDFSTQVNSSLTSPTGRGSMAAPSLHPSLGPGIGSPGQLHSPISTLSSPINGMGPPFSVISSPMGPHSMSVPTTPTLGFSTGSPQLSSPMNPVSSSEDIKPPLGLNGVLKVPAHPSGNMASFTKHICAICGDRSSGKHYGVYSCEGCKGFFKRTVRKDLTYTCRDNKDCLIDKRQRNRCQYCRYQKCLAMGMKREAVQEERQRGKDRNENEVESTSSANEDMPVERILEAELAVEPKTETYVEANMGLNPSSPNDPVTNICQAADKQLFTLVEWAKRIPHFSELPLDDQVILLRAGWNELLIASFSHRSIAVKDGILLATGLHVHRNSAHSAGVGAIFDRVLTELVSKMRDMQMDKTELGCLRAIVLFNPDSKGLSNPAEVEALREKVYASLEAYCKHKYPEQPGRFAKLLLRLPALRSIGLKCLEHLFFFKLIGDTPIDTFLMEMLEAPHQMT

As to `Cc1cc2c(cc1C(=O)/C(Cl)=C/c1ccc(C(=O)O)cc1)C(C)(C)CCC2(C)C`, the Activity in the assay on NB-4 [1] is listed as 4%; in assay [2], 19%; in the assay on NB-4 [3], 21.24%; in [4] it was 24.72%; in assay [5], “Active; Highly Raralpha Selective Agonistic Activity Observed”; in the assay on NB-4 [6], 41%. For the same compound, the Activity is 8% in assay [8]; 43% in the assay on NB-4 [9]; 17.39% in assay [10]; 27.43% with NB-4 [11]; 66% in [12]; “Dose-dependent-effect” in the assay on NB-4 [13]. Also, the results for the Activity (with NB-4 [14]; in the assay on NB-4 [16]; in assay [17]) were 12%, 15% and 7%, respectively. Further, the inhibition at 0.125 µM in the assay on NB-4 [7] was about 10%. For the same compound, the “inhibition (INH)” value with NB-4 [15] is reported as 100%.

With `Cc1cc2c(cc1-c1cc(/C=C/C(=O)O)ccc1O)C(C)(C)CCC2(C)C`, the Kd in assay [18] was 549 nM.
